Here are results for 23 compounds from ChEMBL document CHEMBL6114995, “Discovery of novel imidazo[1,2-b]pyridazine derivatives as potent covalent inhibitors of CDK12/13” (Eur J Med Chem, 2025).

Calls of active or inactive are those of the source. No cut-off for these calls is given here.

For assay [1], the system named is MDA-MB-468. Put plainly: cells. The settings on record: Homo sapiens, MDA-MB-468, 96 h.
Description: Antiproliferative activity against human MDA-MB-468 cells assessed as inhibition of cell growth incubated for 96 hrs cellcounting-lite analysis
Assay [2] has as its system MDA-MB-231. Put plainly: cells. The settings on record: Homo sapiens, MDA-MB-231, 96 h.
Description: Antiproliferative activity against human MDA-MB-231 cells assessed as inhibition of cell growth incubated for 96 hrs cellcounting-lite analysis
Assay [3] deals with T1, Cyclin-dependent kinase 12 (Homo sapiens, UniProt Q9NYV4). The settings on record: dose 20.0 nM.
Target sequence in this assay (Q9NYV4 whole entry, looked up): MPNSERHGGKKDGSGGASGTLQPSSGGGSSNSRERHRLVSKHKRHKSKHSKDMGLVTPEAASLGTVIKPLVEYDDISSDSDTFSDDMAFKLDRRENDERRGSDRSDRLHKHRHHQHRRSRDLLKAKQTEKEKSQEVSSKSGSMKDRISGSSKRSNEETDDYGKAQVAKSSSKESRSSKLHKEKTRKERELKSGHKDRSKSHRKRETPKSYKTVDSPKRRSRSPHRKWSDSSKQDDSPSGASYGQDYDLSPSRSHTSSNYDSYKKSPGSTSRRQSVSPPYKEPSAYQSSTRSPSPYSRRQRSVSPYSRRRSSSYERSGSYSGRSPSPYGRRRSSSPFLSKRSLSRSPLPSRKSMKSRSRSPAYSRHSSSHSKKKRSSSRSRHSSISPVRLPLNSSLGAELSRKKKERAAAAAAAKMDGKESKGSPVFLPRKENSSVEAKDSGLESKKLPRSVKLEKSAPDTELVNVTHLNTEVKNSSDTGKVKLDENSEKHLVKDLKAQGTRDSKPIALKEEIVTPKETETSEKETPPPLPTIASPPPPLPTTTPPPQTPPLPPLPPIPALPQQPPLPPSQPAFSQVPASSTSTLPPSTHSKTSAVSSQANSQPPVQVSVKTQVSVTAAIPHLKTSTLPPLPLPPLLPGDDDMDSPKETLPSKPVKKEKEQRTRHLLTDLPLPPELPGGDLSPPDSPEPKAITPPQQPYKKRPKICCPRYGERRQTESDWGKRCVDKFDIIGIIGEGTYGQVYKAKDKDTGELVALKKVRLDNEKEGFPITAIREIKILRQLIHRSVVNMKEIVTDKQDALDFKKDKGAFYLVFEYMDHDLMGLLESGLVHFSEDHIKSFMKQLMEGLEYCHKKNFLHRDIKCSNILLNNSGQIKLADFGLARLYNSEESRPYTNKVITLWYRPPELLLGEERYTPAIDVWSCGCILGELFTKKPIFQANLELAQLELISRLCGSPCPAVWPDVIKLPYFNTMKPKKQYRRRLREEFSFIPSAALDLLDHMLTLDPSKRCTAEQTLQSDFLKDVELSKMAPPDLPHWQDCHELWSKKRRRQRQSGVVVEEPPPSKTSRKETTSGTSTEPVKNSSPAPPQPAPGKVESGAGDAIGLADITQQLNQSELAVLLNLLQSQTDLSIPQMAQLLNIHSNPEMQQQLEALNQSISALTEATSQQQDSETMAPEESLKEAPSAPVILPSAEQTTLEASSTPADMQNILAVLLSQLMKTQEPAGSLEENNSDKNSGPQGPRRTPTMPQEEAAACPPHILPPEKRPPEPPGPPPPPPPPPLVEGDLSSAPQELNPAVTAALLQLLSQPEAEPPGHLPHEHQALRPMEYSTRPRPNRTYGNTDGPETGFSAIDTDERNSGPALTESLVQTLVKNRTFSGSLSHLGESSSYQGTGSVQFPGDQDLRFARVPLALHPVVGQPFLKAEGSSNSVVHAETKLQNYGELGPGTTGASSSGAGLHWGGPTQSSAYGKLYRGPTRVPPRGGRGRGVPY
Description: Inhibition of CDK12 (unknown origin) at 20 nM relative to control
For assay [4], the target named is T1, Cyclin-dependent kinase 12. The settings on record: dose 200.0 nM.
Target sequence in this assay (Q9NYV4 whole entry, looked up): as above
Description: Inhibition of CDK12 (unknown origin) at 200 nM relative to control
Assay [5] addresses T1, Cyclin-dependent kinase 12. In words: Inhibition of CDK12 (unknown origin) using GSRTPMY-NH2 as substrate in presence of ATP by ADP-glo assay.
Target sequence in this assay (Q9NYV4 whole entry): as the sequence (Q9NYV4 whole entry, looked up) above
Assay [6] addresses T1, Cyclin-dependent kinase 12. The settings on record: dose 2000.0 nM.
Target sequence in this assay (Q9NYV4 whole entry, looked up): as above
Description: Inhibition of CDK12 (unknown origin) at 2000 nM relative to control
Assay [7] addresses T1, Cyclin-dependent kinase 12. In words: Inhibition of CDK12 in human MDA-MB-231 cells assessed as reduction in RNA Pol II CTD level at Ser2 residue at 10 uM incubated for 4 hrs by Western blot analysis. Format: cell-based. A general note: A western blot detects proteins with antibodies after separation by electrophoresis.
Target sequence in this assay (Q9NYV4 whole entry, looked up): as above
In assay [8] the target is T1, Cyclin-dependent kinase 12. In words: Irreversible inhibition of CDK12 in human MDA-MB-231 cells at 10 uM pretreated with compound for 4 hrs followed by compound washout measured after 6 hrs. Format: cell-based.
Target sequence in this assay (Q9NYV4 whole entry, looked up): as above
In assay [9] the target is Protein cereblon/Cyclin-K (Homo sapiens, UniProt O75909+Q96SW2). In words: PROTAC activity at CRBN/Cyclin K in human MDA-MB-231 cells assessed as reduction in cyclin K level incubated for 4 hrs by Western blot analysis. The assay is classed as cell-based.
For assay [10], the system named is MDA-MB-231. Put plainly: Effect on ATM level in human MDA-MB-231 cells at 50 nM incubated for 24 hrs by Western blot analysis. Format: functional, cell-based.
Assay [11] deals with MDA-MB-231. In words: Effect on RAD51 mRNA level in human MDA-MB-231 cells at 50 nM incubated for 6 hrs by qRT-PCR analysis. The assay is classed as functional, cell-based.
The target of assay [12] is T1, Cyclin-dependent kinase 12. Put plainly: Inhibition of full length FLAG-tagged CDK12 (unknown origin) at Cys1039 residue expressed in HEK293T cells at 50 uM incubated for 2 hrs by mass spectrometry analysis. Format: cell-based.
Target sequence in this assay (Q9NYV4 whole entry, looked up): as above
Assay [13] has as its system MDA-MB-231. In words: Effect on BRCA1 mRNA level in human MDA-MB-231 cells at 50 nM incubated for 6 hrs by qRT-PCR analysis. The assay is classed as functional, cell-based.
For assay [14], the target named is T1, Cyclin-dependent kinase 12. The settings on record: MDA-MB-231, dose 200.0 nM, time 4.0 hrs.
Assay [15] deals with T1, Cyclin-dependent kinase 12. In words: Inhibition of CDK12 in human MDA-MB-231 cells at 100 nM measured upto 6 hrs by Western blot analysis. Format: cell-based.
The target in assay [16] is T1, Cyclin-dependent kinase 12. In words: Inhibition of CDK12 in human MDA-MB-231 cells incubated for 4 hrs by immunoblotting analysis. Format: cell-based.
Assay [17] relates to MDA-MB-231. Put plainly: Effect on RAD51 level in human MDA-MB-231 cells at 50 nM incubated for 24 hrs by Western blot analysis. The assay is classed as functional, cell-based.
The target in assay [18] is T1, Cyclin-dependent kinase 12. In words: Inhibition of CDK12 in human MDA-MB-231 cells incubated for 4 hrs. Format: cell-based.
The target of assay [19] is T1, Cyclin-dependent kinase 12. In words: Inhibition of CDK12 in human MDA-MB-231 cells incubated for 10 hrs. The assay is classed as cell-based.
Target sequence in this assay (Q9NYV4 whole entry): as the sequence (Q9NYV4 whole entry, looked up) above
For assay [20], the system named is MDA-MB-231. In words: Effect on cleaved PARP level in human MDA-MB-231 cells at 50 nM incubated for 24 hrs by Western blot analysis. Format: functional, cell-based.
The test system of assay [21] is MDA-MB-231. Put plainly: Effect on SMARCC1 mRNA level in human MDA-MB-231 cells at 50 nM incubated for 6 hrs by qRT-PCR analysis. Format: functional, cell-based.
In assay [22] the test system is MDA-MB-231. In words: Effect on FANCI mRNA level in human MDA-MB-231 cells at 50 nM incubated for 6 hrs by qRT-PCR analysis. The assay is classed as functional, cell-based. A general note: In qPCR the cycle at which signal appears reflects the starting amount.
For assay [23], the target named is Cyclin-dependent kinase 13 (Homo sapiens, UniProt Q14004). In words: Inhibition of CDK13 (unknown origin) using GSRTPMY-NH2 as substrate in presence of ATP by ADP-glo assay. In general terms: ADP-Glo first removes unused ATP, then detects ADP through luciferase.
Assay [24] deals with T1, Cyclin-dependent kinase 12. Put plainly: Inhibition of CDK12 in human MDA-MB-231 cells pretreated with compound for 4 hrs followed by compound washout measured after 3 days. Format: cell-based.
Target sequence in this assay (Q9NYV4 whole entry): as the sequence (Q9NYV4 whole entry, looked up) above
Assay [25] concerns the target T1, Cyclin-dependent kinase 12. Put plainly: Binding affinity to CDK12 (714 to 1069 residues) in HEK293T cells assessed as increase in thermal stability at 5 uM measured for 6 hrs by cellular thermal shift assay. The assay is classed as cell-based.
The subject of assay [26] is MDA-MB-231. In words: Effect on ATM mRNA level in human MDA-MB-231 cells at 50 nM incubated for 6 hrs by qRT-PCR analysis. The assay is classed as functional, cell-based.
In assay [27] the test system is MDA-MB-231. In words: Effect on alpha-tubulin level in human MDA-MB-231 cells at 50 nM incubated for 24 hrs by Western blot analysis. The assay is classed as functional, cell-based.
Assay [28] deals with MDA-MB-231. In words: Effect on ATR mRNA level in human MDA-MB-231 cells at 50 nM incubated for 6 hrs by qRT-PCR analysis. Format: functional, cell-based.
For assay [29], the system named is MDA-MB-231. Put plainly: Effect on FANCD2 mRNA level in human MDA-MB-231 cells at 50 nM incubated for 6 hrs by qRT-PCR analysis. The assay is classed as functional, cell-based.
Assay [30] concerns the target T1, Cyclin-dependent kinase 12. In words: Inhibition of CDK12 in human MDA-MB-231 cells assessed as reduction in RNA Pol II CTD level at Ser2 residue at 2000 nM incubated for 4 hrs by Western blot analysis. The assay is classed as cell-based.
In assay [31] the target is T1, Cyclin-dependent kinase 12. Put plainly: Irreversible inhibition of CDK12 in human MDA-MB-231 cells at 100 nM pretreated with compound for 4 hrs followed by compound washout measured after 6 hrs. Format: cell-based.

Sequence of Protein cereblon/Cyclin-K (O75909 whole entry): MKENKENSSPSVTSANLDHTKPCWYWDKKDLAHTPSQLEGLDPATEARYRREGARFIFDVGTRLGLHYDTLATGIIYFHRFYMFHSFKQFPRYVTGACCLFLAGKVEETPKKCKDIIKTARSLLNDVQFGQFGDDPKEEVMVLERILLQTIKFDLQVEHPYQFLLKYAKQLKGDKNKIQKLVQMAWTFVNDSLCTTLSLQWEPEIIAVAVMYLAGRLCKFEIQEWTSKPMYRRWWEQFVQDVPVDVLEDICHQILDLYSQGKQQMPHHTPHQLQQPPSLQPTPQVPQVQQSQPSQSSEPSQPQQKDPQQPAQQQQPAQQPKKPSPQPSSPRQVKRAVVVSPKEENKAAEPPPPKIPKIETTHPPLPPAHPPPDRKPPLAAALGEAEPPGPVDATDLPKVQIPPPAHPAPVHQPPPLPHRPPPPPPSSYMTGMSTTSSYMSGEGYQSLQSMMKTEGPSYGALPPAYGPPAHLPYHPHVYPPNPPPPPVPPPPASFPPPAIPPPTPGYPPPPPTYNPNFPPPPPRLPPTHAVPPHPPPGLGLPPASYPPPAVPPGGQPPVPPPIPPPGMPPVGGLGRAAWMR
Sequence of Protein cereblon/Cyclin-K (Q96SW2 whole entry): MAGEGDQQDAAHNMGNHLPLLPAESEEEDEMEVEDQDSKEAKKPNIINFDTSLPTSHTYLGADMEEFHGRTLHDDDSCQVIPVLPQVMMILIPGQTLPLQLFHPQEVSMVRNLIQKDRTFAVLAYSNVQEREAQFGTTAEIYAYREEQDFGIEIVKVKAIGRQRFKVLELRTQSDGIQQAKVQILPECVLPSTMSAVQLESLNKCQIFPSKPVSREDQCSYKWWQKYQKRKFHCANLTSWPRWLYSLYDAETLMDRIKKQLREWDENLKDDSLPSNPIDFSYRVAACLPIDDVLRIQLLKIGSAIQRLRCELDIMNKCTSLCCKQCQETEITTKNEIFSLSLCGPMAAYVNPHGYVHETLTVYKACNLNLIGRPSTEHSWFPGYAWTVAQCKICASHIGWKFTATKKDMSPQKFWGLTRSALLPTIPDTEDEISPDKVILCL
Sequence of Cyclin-dependent kinase 13 (Q14004 whole entry): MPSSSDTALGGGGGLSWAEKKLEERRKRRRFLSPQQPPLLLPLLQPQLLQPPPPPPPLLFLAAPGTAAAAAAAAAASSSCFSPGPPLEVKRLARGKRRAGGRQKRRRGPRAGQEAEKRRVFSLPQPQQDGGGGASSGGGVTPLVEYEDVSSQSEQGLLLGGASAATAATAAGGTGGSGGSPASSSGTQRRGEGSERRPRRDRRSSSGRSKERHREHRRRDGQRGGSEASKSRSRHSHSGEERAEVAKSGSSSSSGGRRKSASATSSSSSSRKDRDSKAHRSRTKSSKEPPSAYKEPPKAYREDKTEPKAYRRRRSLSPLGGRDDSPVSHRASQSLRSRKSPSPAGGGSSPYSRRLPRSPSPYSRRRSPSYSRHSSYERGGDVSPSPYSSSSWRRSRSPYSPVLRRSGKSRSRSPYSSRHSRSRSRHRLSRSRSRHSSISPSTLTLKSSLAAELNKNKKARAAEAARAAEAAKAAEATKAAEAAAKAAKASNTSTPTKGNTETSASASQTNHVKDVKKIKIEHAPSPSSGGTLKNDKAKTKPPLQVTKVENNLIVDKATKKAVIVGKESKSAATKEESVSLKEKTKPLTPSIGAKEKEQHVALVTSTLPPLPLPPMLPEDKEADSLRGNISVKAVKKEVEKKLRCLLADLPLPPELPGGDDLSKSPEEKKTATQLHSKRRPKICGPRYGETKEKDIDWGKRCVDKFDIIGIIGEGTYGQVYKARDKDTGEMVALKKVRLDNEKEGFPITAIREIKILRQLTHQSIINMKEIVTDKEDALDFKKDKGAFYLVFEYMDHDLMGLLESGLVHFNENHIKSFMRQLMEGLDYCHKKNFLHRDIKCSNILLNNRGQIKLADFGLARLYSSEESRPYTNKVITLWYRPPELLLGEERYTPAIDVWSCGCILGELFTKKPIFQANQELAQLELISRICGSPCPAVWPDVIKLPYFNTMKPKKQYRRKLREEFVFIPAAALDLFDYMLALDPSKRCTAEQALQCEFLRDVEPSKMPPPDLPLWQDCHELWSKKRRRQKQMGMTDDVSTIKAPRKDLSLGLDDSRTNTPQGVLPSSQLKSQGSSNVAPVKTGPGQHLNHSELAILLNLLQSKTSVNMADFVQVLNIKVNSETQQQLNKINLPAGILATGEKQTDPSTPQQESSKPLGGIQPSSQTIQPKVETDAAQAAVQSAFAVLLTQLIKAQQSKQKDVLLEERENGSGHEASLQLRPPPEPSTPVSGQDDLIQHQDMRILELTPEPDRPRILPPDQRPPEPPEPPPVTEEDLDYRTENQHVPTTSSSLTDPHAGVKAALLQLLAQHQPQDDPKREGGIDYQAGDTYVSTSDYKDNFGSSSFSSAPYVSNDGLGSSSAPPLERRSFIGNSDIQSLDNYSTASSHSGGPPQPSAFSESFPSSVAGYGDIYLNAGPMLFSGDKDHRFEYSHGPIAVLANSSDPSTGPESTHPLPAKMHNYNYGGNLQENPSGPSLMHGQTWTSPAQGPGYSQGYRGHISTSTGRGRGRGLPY

A word on the EC50: it is the concentration needed to bring the measured effect to its halfway point. Regarding `C=CC(=O)Nc1cccc(-c2ccc3nc(CC(=O)Nc4cc(C5CC5)[nH]n4)cn3n2)c1`, the EC50 in [1] was 28.3 nM; in [2], 126 nM.
Turning to `Cn1cc(-n2cnc3c(NCc4nc5cc(Cl)c(Cl)cc5[nH]4)nc(N4CCOCC4)nc32)cn1`, the EC50 stood at 20.3 nM in [1] and 20.7 nM in assay [2].
In the case of `C=CC(=O)Nc1ccc(-c2ccc3nc(CC(=O)Nc4cc(C(C)(C)C)on4)cn3n2)cc1F`, a half-maximal response in [2] (EC50) required 2860 nM.
On to `C=CC(=O)Nc1ccc(-c2ccc3nc(CC(=O)Nc4ncc(C(C)C)s4)cn3n2)cc1F`, for which the results for the EC50 in assay [1] and in [2] were 608 nM and 424 nM, respectively.
In the case of `C=CC(=O)Nc1ccccc1-c1ccc2nc(CC(=O)Nc3cc(C4CC4)[nH]n3)cn2n1`, the values for the EC50 in assay [1] and in assay [2] were 504 nM and 352 nM, respectively.
Usually inhibition stands for the percentage by which the read-out fell short of the control. Usually IC50 stands for the concentration needed to halve the response being measured. For `CN(C)C/C=C/C(=O)Nc1ccc(C(=O)N2CCC[C@@H](Nc3ncc(Cl)c(-c4c[nH]c5ccccc45)n3)C2)cc1`, the inhibition was 59.7% in assay [3], 92.7% in assay [4] and 93.1% in assay [6]. Further, the EC50 in [1] was found to be 6.9 nM; in assay [2], 26.3 nM. The 50% inhibitory concentration (IC50) in [5] turned out to be 14.1 nM.
As for `C=CC(=O)Nc1ccc(-c2ccc3nc(CC(=O)Nc4cc(C5CC5)[nH]n4)cn3n2)cc1`, the EC50 came to 36.4 nM in assay [1] and 67.3 nM in assay [2].
For `C=CC(=O)Nc1ccc(-c2ccc3nc(CC(=O)Nc4nc(C)cs4)cn3n2)cc1F` the same measures were 1300 nM and 3040 nM.
Regarding `CCC(=O)Nc1ccc(-c2ccc3nc(CC(=O)Nc4cc(C5CCC5)[nH]n4)cn3n2)cc1F`, the inhibition entry in assay [7] and in assay [8] was “Active” in each case.
For the compound `C=CC(=O)Nc1ccc(-c2ccc3nc(CC(=O)Nc4ncc(C(C)(C)C)s4)cn3n2)cc1F`, the EC50 in assay [1] amounted to 354 nM; in assay [2], 219 nM.
With `C=CC(=O)Nc1ccc(-c2ccc3nc(CC(=O)Nc4cc(C)no4)cn3n2)cc1F`, the concentration for a half-maximal effect (EC50) in assay [2] is 2920 nM.
For `C=CC(=O)Nc1ccc(-c2ccc3nc(CC(=O)Nc4nc(C)c(C)s4)cn3n2)cc1F`, the EC50 in assay [1] is 1160 nM; in assay [2] it was 3140 nM.
In assay [1], `C=CC(=O)Nc1ccc(-c2ccc3nc(CC(=O)Nc4cc(C)ns4)cn3n2)cc1F` yielded an EC50 of 4520 nM.
Turning to `C=CC(=O)Nc1ccc(-c2ccc3nc(CC(=O)Nc4ncc(CC)s4)cn3n2)cc1F`, the values for the inhibition in [3], in assay [4] and in assay [6] were 29.9%, 80.7% and 92.1%, respectively. In addition, the concentration for a half-maximal effect (EC50) turned out to be 108 nM in [1] and 120 nM in [2]. Moreover, in assay [5], the IC50 was 34.2 nM.
For `CCN(CC)CC(=O)N1CCN(c2nc(NCc3nc4cc(Cl)c(Cl)cc4[nH]3)c3ncn(CC)c3n2)CC1`, the DC50 in [9] stood at 0.38 nM.
On to `C=CC(=O)Nc1c(F)cc(-c2ccc3nc(CC(=O)Nc4cc(C5CC5)[nH]n4)cn3n2)cc1F`, for which the concentration for a half-maximal effect (EC50) in assay [1] came out at 196 nM; in assay [2], 131 nM.
For `C=CC(=O)Nc1ccc(-c2ccc3nc(CC(=O)Nc4cc(C5CC5)[nH]n4)cn3n2)cc1OC` the same measures were 40.9 nM and 46.4 nM.
With `C=CC(=O)Nc1ccc(-c2ccc3nc(CC(=O)Nc4cc(C5CC5)[nH]n4)cn3n2)cc1Cl`, the EC50 in assay [1] stood at 47.9 nM; in assay [2], 84.9 nM.
The compound `C=CC(=O)Nc1ccc(-c2ccc3nc(CC(=O)Nc4nc(C5CC5)cs4)cn3n2)cc1F` registered an EC50 in assay [1] of 7260 nM.
With `C=CC(=O)Nc1ccc(-c2ccc3nc(CC(=O)Nc4cc(C5CC5)[nH]n4)cn3n2)cc1C`, the values for the EC50 in [1] and in [2] were 13.5 nM and 30.3 nM, respectively.
Take `C=CC(=O)Nc1ccc(-c2ccc3nc(CC(=O)Nc4cc(C5CCC5)[nH]n4)cn3n2)cc1F`: the outcome in [10], in assay [11], in assay [13], in [17], in assay [20] and in assay [21] was Active. Moreover, the outcome in assay [22], in assay [25], in assay [26], in assay [27], in [28] and in assay [29] was Active. Moreover, the inhibition in assay [3] was 73.8%; in assay [14] it was 100%; in [4], 93%; in [6], 92.5%. The inhibition entry in assay [12], in [15], in assay [16], in [18], in [30] and in assay [31] was “Active” in each case. Further, the concentration for a half-maximal effect (EC50) in assay [1] was 6 nM; in assay [19], 5.38 nM; in [24] it was 40 nM; in [2], 5 nM. In addition, the IC50 in [5] amounted to 15.5 nM; in assay [23], 12.2 nM.
Consider `C=CC(=O)Nc1ccc(-c2ccc3nc(CC(=O)Nc4cc(C5CC5)[nH]n4)cn3n2)cc1F`, for which the outcome in assay [10], in assay [11], in assay [13], in [17], in [20] and in assay [21] was Active. Further, the outcome in assay [22], in [26], in [27], in [28] and in assay [29] was Active. The values for the EC50 in assay [1] and in [2] were 10.1 nM and 14.3 nM, respectively.
For the compound `C=CC(=O)Nc1c(C)cc(-c2ccc3nc(CC(=O)Nc4cc(C5CC5)[nH]n4)cn3n2)cc1C`, the figures for the EC50 in [1] and in assay [2] were 36.2 nM and 75.9 nM, respectively.
